Test results: ChEMBL document CHEMBL4613329, “Characterization of Inhibition Reveals Distinctive Properties for Human and Saccharomyces cerevisiae CRM1” (J Med Chem, 2020)
Active and inactive are the calls of the source. No cut-off for these calls is given here.

Key:
[1] = target: T1, Exportin-1 (Homo sapiens, UniProt O14980); test: Inhibition of fluorescently labeled PKI phi(0)Leu NES binding to human CRM1 expressed in Escherichia coli BL21 (DE3) by fluorescence polarization competition binding assay
T1 sequence (O14980 whole entry): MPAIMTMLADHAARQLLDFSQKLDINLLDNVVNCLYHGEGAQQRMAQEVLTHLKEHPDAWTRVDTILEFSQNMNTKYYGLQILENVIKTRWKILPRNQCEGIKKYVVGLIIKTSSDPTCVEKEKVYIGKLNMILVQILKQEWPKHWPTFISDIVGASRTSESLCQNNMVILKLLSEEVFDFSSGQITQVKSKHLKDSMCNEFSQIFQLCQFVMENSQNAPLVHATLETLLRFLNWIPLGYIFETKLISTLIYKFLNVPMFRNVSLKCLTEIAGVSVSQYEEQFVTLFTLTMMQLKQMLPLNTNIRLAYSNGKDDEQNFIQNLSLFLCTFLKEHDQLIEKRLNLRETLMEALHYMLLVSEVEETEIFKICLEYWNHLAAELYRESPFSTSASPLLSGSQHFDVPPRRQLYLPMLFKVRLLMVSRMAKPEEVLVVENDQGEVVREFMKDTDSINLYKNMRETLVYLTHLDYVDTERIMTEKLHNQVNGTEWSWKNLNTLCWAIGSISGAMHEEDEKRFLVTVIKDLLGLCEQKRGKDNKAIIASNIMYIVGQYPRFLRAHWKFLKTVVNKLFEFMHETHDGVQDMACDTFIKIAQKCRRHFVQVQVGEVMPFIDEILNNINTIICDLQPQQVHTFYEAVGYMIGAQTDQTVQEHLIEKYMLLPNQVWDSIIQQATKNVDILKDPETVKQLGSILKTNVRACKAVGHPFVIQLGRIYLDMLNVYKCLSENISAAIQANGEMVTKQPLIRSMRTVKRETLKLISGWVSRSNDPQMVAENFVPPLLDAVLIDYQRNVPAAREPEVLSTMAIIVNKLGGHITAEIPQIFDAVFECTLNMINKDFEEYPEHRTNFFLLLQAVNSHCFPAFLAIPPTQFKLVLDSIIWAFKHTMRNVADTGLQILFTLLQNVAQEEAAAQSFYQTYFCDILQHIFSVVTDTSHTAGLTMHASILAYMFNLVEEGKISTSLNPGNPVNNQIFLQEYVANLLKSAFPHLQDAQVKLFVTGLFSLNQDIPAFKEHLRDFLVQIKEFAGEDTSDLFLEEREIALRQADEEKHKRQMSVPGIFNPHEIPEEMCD

[2] = test system: Saccharomyces cerevisiae; test: Inhibition of fluorescently labeled PKI phi(0)Leu NES binding to Saccharomyces cerevisiae CRM1 Thr539Cys mutant expressed in Escherichia coli BL21 (DE3) at 2 to 2000 nM by fluorescence polarization competition binding assay
[3] = test system: Exportin-1 (Homo sapiens), O14980 [C528S]; details: 200 nM
Chain of Exportin-1 (Homo sapiens), O14980 [C528S] (O14980 whole entry C528S, the tested form may be a part): as the sequence (O14980 whole entry) above, with C528S counted along it
Description: Inhibition of fluorescently labeled PKI phi(0)Leu NES binding to human CRM1 C528S mutant expressed in Escherichia coli BL21 (DE3) at 200 nM by fluorescence polarization competition binding assay

[4] = target: Exportin-1 (Saccharomyces cerevisiae) (UniProt P30822); details: 2 to 2000 nM
Description: Inhibition of fluorescently labeled PKI phi(0)Leu NES binding to Saccharomyces cerevisiae CRM1 expressed in Escherichia coli BL21 (DE3) at 2 to 2000 nM by fluorescence polarization competition binding assay

[5] = test system: Exportin-1 (Homo sapiens), O14980 [C528S]; test: Inhibition of fluorescently labeled PKI phi(0)Leu NES binding to human CRM1 C528S mutant expressed in Escherichia coli BL21 (DE3) at 62 uM by fluorescence polarization competition binding assay
[6] = target: T1, Exportin-1; test: Inhibition of immobilized HsCRM1-HsRanGTP-HsSPN binding to C-terminal His6-tagged and MBP-fused full length human CRM1 expressed in Escherichia coli SG13009 at 100 nmol incubated for 20 mins by pull-down assay
[7] = target: Exportin-1 (Saccharomyces cerevisiae) (UniProt P30822); test: Inhibition of fluorescently labeled PKI phi(0)Leu NES binding to Saccharomyces cerevisiae CRM1 expressed in Escherichia coli BL21 (DE3) at 0.2 to 200 uM by fluorescence polarization competition binding assay
[8] = test system: Saccharomyces cerevisiae; test: Inhibition of fluorescently labeled PKI phi(0)Leu NES binding to Saccharomyces cerevisiae CRM1 Thr539Cys mutant expressed in Escherichia coli BL21 (DE3) at 0.2 to 200 uM by fluorescence polarization competition binding assay
[9] = test system: Exportin-1 (Homo sapiens), O14980 [C528S]; test: Inhibition of fluorescently labeled PKI phi(0)Leu NES binding to human CRM1 C528S mutant expressed in Escherichia coli BL21 (DE3) at 6 uM by fluorescence polarization competition binding assay
[10] = target: Exportin-1 (Saccharomyces cerevisiae) (UniProt P30822); test: Inhibition of fluorescently labeled PKI phi(0)Leu NES binding to Saccharomyces cerevisiae CRM1 expressed in Escherichia coli BL21 (DE3) at 0.5 to 500 uM by fluorescence polarization competition binding assay

Row | Structure (SMILES) | IC50 [1] | inhibition [2] | inhibition [3] | inhibition [4] | inhibition [1] | inhibition [5] | inhibition [6] | inhibition [7] | inhibition [8] | inhibition [9] | inhibition [10]
1 | CCC(=C/[C@H](C)C/C=C/C(C)=C/[C@@H](C)C(=O)[C@@H](C)[C@H](O)[C@@H](C)C/C(C)=C/C(=O)O)/C=C/[C@@H]1OC(=O)C=C[C@@H]1C [LEPTOMYCIN B] | 0.151 µM | Active | inactive | inactive | – | – | – | – | – | – | –
2 | COc1cc2cnsc2s1 | 40 µM | – | – | – | Dose-dependent effect | inactive | inactive | – | – | – | –
3 | NC(=O)c1c(NC(NC(=O)c2ccccc2F)(C(F)(F)F)C(F)(F)F)sc2c1CCCC2 | 59 µM | – | – | – | Dose-dependent effect | inactive | inactive | inactive | inactive | – | –
4 | COc1cc(-c2nc(S(=O)(=O)c3ccc(Cl)cc3)c(N(C)C)o2)cc(OC)c1OC | 4.2 µM | – | – | – | Dose-dependent effect | – | Active | inactive | inactive | inactive | –
5 | CCOC(=O)c1n[nH]c2c1C(=O)N(c1ccc([N+](=O)[O-])cc1)C2=O | 63 µM | – | – | – | – | Active | Active | – | – | – | Active
